{
  "source": "paper PMC5378303",
  "about": "(Nature, 2017)",
  "biological_target": "T1, phi3T AimR receptor (Bacillus phage phi3T, UniProt P0DOE3)",
  "T1 sequence (P0DOE3 1-378)": "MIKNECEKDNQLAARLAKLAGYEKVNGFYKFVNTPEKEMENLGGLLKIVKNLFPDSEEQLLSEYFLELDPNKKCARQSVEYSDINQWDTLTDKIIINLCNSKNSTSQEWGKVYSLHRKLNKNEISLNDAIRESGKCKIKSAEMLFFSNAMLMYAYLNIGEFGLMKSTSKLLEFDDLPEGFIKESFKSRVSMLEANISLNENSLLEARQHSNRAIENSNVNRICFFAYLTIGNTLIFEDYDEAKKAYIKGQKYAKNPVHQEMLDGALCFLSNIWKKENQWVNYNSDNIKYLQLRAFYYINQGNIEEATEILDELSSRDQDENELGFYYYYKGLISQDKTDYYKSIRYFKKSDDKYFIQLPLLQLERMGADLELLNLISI",
  "experiment": "Microscale thermophoresis",
  "type": "binding",
  "conditions": "label-free MST, 200 nM AimR, peptide 9-4000 nM, pH 8.0, 23 °C, 3 runs",
  "data": [
    {"substance": "GMPRGA", "values": [
      {"measurement": "binding to phi3T AimR (in words)", "result": "did not show specific binding to the phi3T AimR receptor"}
    ]}
  ]
}
